Measurements taken from patent publication US7674819B2 (Warner-Lambert Company LLC, priority 2005, dated 2010).
Read-outs that look alike come from different tables or passages of the source.

Molecular target: T1, hAR (Homo sapiens, UniProt P10275)
T1 sequence (P10275 1-920): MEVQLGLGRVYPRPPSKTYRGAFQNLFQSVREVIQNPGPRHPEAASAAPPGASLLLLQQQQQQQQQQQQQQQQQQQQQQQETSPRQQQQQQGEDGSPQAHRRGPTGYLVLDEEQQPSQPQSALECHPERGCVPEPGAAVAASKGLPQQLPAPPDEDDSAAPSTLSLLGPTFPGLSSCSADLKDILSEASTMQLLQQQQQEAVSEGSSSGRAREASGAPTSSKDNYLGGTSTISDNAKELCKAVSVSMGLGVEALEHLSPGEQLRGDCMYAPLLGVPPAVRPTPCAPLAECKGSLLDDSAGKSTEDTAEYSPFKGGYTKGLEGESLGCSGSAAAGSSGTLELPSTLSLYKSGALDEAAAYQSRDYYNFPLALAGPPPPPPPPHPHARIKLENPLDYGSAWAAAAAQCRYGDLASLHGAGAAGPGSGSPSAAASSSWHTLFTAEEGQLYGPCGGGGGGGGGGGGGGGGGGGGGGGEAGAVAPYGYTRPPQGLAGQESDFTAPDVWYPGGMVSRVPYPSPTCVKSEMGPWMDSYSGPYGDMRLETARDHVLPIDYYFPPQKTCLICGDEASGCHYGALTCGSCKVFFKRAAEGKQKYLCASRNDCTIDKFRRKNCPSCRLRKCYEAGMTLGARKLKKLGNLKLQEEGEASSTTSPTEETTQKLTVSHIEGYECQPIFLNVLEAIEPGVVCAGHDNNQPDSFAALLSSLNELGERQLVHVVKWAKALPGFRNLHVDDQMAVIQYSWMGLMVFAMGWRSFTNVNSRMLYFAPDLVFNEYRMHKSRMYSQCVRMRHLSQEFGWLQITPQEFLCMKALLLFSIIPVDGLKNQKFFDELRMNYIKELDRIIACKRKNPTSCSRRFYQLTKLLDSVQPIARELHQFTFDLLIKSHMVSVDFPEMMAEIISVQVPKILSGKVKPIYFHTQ
Assay: Competitive binding of 3H-DHT to baculovirus/Sf9 generated hAR extracts
Settings: one hour at 4° C., mean of multiple tests
Procedure: The description below describes how the assay was carried out.
Competitive binding analysis was performed on baculovirus/Sf9 generated hAR extracts in the presence or absence of different concentrations of test agent and a fixed concentration of ^3H-dihydrotestosterone (^3H-DHT) as tracer. This binding assay method is a modification of a protocol previously described (Liao S., et. al. J. Steroid Biochem. 20:11-17 1984). Briefly, progressively decreasing concentrations of compounds are incubated in the presence of hAR extract (Chang et al. P.N.A.S. Vol. 89, pp. […], 1992), hydroxylapatite, and 1 nM^3H-DHT for one hour at 4° C. Subsequently, the binding reactions are washed three times to completely remove excess unbound ^3H-DHT. hAR bound ^3H-DHT levels are determined in the presence of compounds (i.e. competitive binding) and compared to levels bound when no competitor is present (i.e. maximum binding). Compound binding affinity to the hAR is expressed as the concentration of compound at which one half of the maximum binding is inhibited.

[1] = concentration at which one half of maximum binding of 1 nM 3H-DHT to hAR is inhibited, read-out: IC50
[2] = IC50, concentration at which one half of maximum binding of 1 nM 3H-DHT to hAR is inhibited

Row | SMILES | IC50 [1] | IC50 [2]
1 | CC1(C)CN(C(=O)c2ccccc2)C(=O)C1Oc1ccc(C#N)c(C(F)(F)F)c1 (racemic) [Example 97, (±) 4-{1-Benzoyl-4,4-dimethyl-2-oxo-pyrrolidin-3-yloxy)-2-trifluoromethyl benzonitrile}] | 311 nM | –
2 | CC1(C)CNC(=O)C1Oc1ccc(C#N)c(C(F)(F)F)c1 (single isomer, unassigned; (+)) [Example 3, (+)-4-(4,4-Dimethyl-2-oxo-pyrrolidin-3-yloxy)-2-trifluoromethyl-benzonitrile] | – | 435 nM
3 | CCCN1CC(C)(C)[C@H](Oc2ccc(C#N)c(C(F)(F)F)c2)C1=O [Example 4B, (−)-4-(1-Propyl-4,4-dimethyl-2-oxo-pyrrolidin-3-yloxy)-2-trifluoromethyl-benzonitrile (E1)] | – | > 10000 nM
4 | COc1ccc(CN2CC(C)(C)C(Oc3ccc(C#N)c(C(F)(F)F)c3)C2=O)cc1 (stereo not shown) [Example 7, 4-[1-(4-Methoxy-benzyl)-4,4-dimethyl-2-oxo-pyrrolidin-3-yloxy]-2-trifluoromethyl-benzonitrile] | – | 298 nM
5 | COc1ccccc1CN1CC(C)(C)C(Oc2ccc(C#N)c(C(F)(F)F)c2)C1=O (stereo not shown) [Example 10, 4-[1-(2-Methoxy-benzyl)-4,4-dimethyl-2-oxo-pyrrolidin-3-yloxy]-2-trifluoromethyl-benzonitrile] | – | 298 nM
6 | CCN1CC(C)(C)C(Oc2ccc(C#N)c(C(F)(F)F)c2)C1=O (stereo not shown) [Example 21, 4-(1-Ethyl-4,4-dimethyl-2-oxo-pyrrolidin-3-yloxy)-2-trifluoromethyl-benzonitrile] | 403 nM | –
7 | CC1(C)CN(Cc2cccc(C(=O)O)c2)C(=O)C1Oc1ccc(C#N)c(C(F)(F)F)c1 (stereo not shown) [Example 26, 3-[3-(4-Cyano-3-trifluoromethyl-phenoxy)-4,4-dimethyl-2-oxo-pyrrolidin-1-ylmethyl]-benzoic acid] | 343 nM | –
8 | CCCCCN1CC(C)(C)C(Oc2ccc(C#N)c(C(F)(F)F)c2)C1=O (stereo not shown) [Example 31, 4-(4,4-Dimethyl-2-oxo-1-pentyl-pyrrolidin-3-yloxy)-2-trifluoromethyl-benzonitrile] | – | 268 nM
9 | CC1(C)CN(CC2CC2)C(=O)C1Oc1ccc(C#N)c(C(F)(F)F)c1 (stereo not shown) [Example 32, 4-(1-Cyclopropylmethyl-4,4-dimethyl-2-oxo-pyrrolidin-3-yloxy)-2-trifluoromethyl-benzonitrile] | 420 nM | –
10 | CCC(CC)CN1CC(C)(C)C(Oc2ccc(C#N)c(C(F)(F)F)c2)C1=O (stereo not shown) [Example 33, 4-[1-(2-Ethyl-butyl)-4,4-dimethyl-2-oxo-pyrrolidin-3-yloxy]-2-trifluoromethyl-benzonitrile] | – | 478 nM
11 | CC1(C)CN(Cc2cccc(C(F)(F)F)c2)C(=O)C1Oc1ccc(C#N)c(C(F)(F)F)c1 (stereo not shown) [Example 34, 4-[4,4-Dimethyl-2-oxo-1-(3-trifluoromethyl-benzyl)-pyrrolidin-3-yloxy]-2-trifluoromethyl-benzonitrile] | 437 nM | –
12 | CC1(C)CN(Cc2ccc(SC(F)(F)F)cc2)C(=O)C1Oc1ccc(C#N)c(C(F)(F)F)c1 (stereo not shown) [Example 36, 4-[4,4-Dimethyl-2-oxo-1-(4-trifluoromethylsulfanyl-benzyl)-pyrrolidin-3-yloxy]-2-trifluoromethyl-benzonitrile] | 484 nM | –
13 | Cc1ccc(Cc2noc(CN3CC(C)(C)C(Oc4ccc(C#N)c(C(F)(F)F)c4)C3=O)n2)cc1 (stereo not shown) [Example 43, 4-{4,4-Dimethyl-1-[3-(4-methyl-benzyl)-[1,2,4]oxadiazol-5-ylmethyl]-2-oxo-pyrrolidin-3-yloxy}-2-trifluoromethyl-benzonitrile] | 283 nM | –
14 | CC1(C)CN(Cc2ccc(S(C)(=O)=O)cc2)C(=O)C1Oc1ccc(C#N)c(C(F)(F)F)c1 (stereo not shown) [Example 44, 4-[1-(4-Methanesulfonyl-benzyl)-4,4-dimethyl-2-oxo-pyrrolidin-3-yloxy]-2-trifluoromethyl-benzonitrile] | 346 nM | –
15 | CC1(C)CN(Cc2nc(-c3ccncc3)no2)C(=O)C1Oc1ccc(C#N)c(C(F)(F)F)c1 (stereo not shown) [Example 49, 4-[4,4-Dimethyl-2-oxo-1-(3-pyridin-4-yl-[1,2,4]oxadiazol-5-ylmethyl)-pyrrolidin-3-yloxy]-2-trifluoromethyl-benzonitrile] | 214 nM | –
16 | COc1ccccc1-c1nc(CN2CC(C)(C)C(Oc3ccc(C#N)c(C(F)(F)F)c3)C2=O)no1 (stereo not shown) [Example 51, 4-{1-[5-(2-Methoxy-phenyl)-[1,2,4]oxadiazol-3-ylmethyl]-4,4-dimethyl-2-oxo-pyrrolidin-3-yloxy}-2-trifluoromethyl-benzonitrile] | 321 nM | –
17 | CC1(C)CN(CC2CCCCC2)C(=O)C1Oc1ccc(C#N)c(C(F)(F)F)c1 (stereo not shown) [Example 53, 4-(1-Cyclohexylmethyl-4,4-dimethyl-2-oxo-pyrrolidin-3-yloxy)-2-trifluoromethyl-benzonitrile] | 294 nM | –
18 | Cn1c(CN2CC(C)(C)C(Oc3ccc(C#N)c(C(F)(F)F)c3)C2=O)nc2ccccc21 (stereo not shown) [Example 55, 4-[4,4-Dimethyl-1-(1-methyl-1H-benzoimidazol-2-ylmethyl)-2-oxo-pyrrolidin-3-yloxy]-2-trifluoromethyl-benzonitrile] | 500 nM | –
19 | COC(=O)c1ccoc1CN1CC(C)(C)C(Oc2ccc(C#N)c(C(F)(F)F)c2)C1=O (stereo not shown) [Example 58, 2-[3-(4-Cyano-3-trifluoromethyl-phenoxy)-4,4-dimethyl-2-oxo-pyrrolidin-1-ylmethyl]-furan-3-carboxylic acid methyl ester] | 313 nM | –
20 | Cc1onc(-c2ccccc2)c1CN1CC(C)(C)C(Oc2ccc(C#N)c(C(F)(F)F)c2)C1=O (stereo not shown) [Example 59, 4-[4,4-Dimethyl-1-(5-methyl-3-phenyl-isoxazol-4-ylmethyl)-2-oxo-pyrrolidin-3-yloxy]-2-trifluoromethyl-benzonitrile] | 277 nM | –
21 | CC1(C)CN(Cc2ccc(-n3cncn3)cc2)C(=O)C1Oc1ccc(C#N)c(C(F)(F)F)c1 (stereo not shown) [Example 62, 4-[4,4-Dimethyl-2-oxo-1-(4-[1,2,4]triazol-1-yl-benzyl)-pyrrolidin-3-yloxy]-2-trifluoromethyl-benzonitrile] | 293 nM | –
22 | CC1(C)CN(Cc2nc(-c3ccc(C4SCCS4)cc3)no2)C(=O)C1Oc1ccc(C#N)c(C(F)(F)F)c1 (stereo not shown) [Example 63, 4-{1-[3-(4-[1,3]Dithiolan-2-yl-phenyl)-[1,2,4]oxadiazol-5-ylmethyl]-4,4-dimethyl-2-oxo-pyrrolidin-3-yloxy}-2-trifluoromethyl-benzonitrile] | 500 nM | –
23 | CC1(C)CN(CC2CCC2)C(=O)C1Oc1ccc(C#N)c(C(F)(F)F)c1 (stereo not shown) [Example 64, 4-(1-Cyclobutylmethyl-4,4-dimethyl-2-oxo-pyrrolidin-3-yloxy)-2-trifluoromethyl-benzonitrile] | 254 nM | –
24 | CC1(C)CN(Cc2nc(-c3cccc([N+](=O)[O-])c3)no2)C(=O)C1Oc1ccc(C#N)c(C(F)(F)F)c1 (stereo not shown) [Example 67, 4-{4,4-Dimethyl-1-[3-(3-nitro-phenyl)-[1,2,4]oxadiazol-5-ylmethyl]-2-oxo-pyrrolidin-3-yloxy}-2-trifluoromethyl-benzonitrile] | 437 nM | –
25 | Cc1noc(C)c1S(=O)(=O)N1CC(C)(C)C(Oc2ccc(C#N)c(C(F)(F)F)c2)C1=O (stereo not shown) [Example 76, 4-[1-(3,5-Dimethyl-isoxazole-4-sulfonyl)-4,4-dimethyl-2-oxo-pyrrolidin-3-yloxy]-2-trifluoromethyl-benzonitrile] | 430 nM | –
